Legend:
TASK-1 = TASK-1 (Homo sapiens, UniProt O14649); details: cited from earlier work
WT hKCNK3 channel = biological target: T1, WT hKCNK3 channel (Homo sapiens, UniProt O14649); test: Whole-cell patch clamp of WT hKCNK3 channels expressed in COS-7 cells, drug application; assay type: cell-based; details: 10 μM, current at +60 mV, pH 7.4
T1 construct: expressed in transfected cells; host or cells: COS-7
Experimental: Functional analysis of the KCNK3 channel was performed to evaluate the functional effects of the rare genetic variants identified and to provide insight into the disease mechanism. pIRES-CD8-hKCNK3 was kindly provided by Florian Lesage (Institut de Pharmacologie Moléculaire et Cellulaire, Centre National de la Recherche Scientifique and Université de Nice Sophia Antipolis, Valbonne, France). hKCNK3 DNA was amplified and inserted into pcDNA 3.1 (+) vector (Invitrogen). Site-directed mutagenesis was performed using the QuikChange kit (Stratagene) and all constructs were sequenced before use. COS-7 cells (American Type Culture Collection) were grown under conventional conditions (5% CO2, DMEM (Gibco) +GlutaMax medium (Gibco) and 10% fetal bovine serum (Gibco)). […] The topology of the KCNK3 channel was based on the crystal structure of TWIK-1 channel^43 and alignment was performed using GeneDoc.^44 Membrane currents were measured with whole-cell patch-clamp procedures using Axopatch 200B amplifiers (Axon Instruments). […] Current measured at +60 mV was selected for comparison of constructs and drug actions. […] Analyzed data are shown as mean+/−S.E.M. Statistical significance was determined using one-way ANOVA. p<0.05 was considered statistically significant. […]

[1] = cited from earlier work

Chain of TASK-1 (O14649 whole entry): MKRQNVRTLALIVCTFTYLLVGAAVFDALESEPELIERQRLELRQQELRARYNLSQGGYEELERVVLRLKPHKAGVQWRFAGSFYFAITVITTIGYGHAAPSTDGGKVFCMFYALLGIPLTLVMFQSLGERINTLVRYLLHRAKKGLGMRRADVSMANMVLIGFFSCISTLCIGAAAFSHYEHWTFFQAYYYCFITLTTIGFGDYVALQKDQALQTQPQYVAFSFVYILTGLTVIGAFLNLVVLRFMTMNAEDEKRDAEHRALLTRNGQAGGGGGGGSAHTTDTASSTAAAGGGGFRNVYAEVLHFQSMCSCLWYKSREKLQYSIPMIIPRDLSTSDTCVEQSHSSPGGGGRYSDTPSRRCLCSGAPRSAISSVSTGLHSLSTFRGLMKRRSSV
T1 sequence (O14649 whole entry): as above

FC(F)(F)C(Cl)Br (stereo not drawn) [Halothane, 2-bromo-2-chloro-1,1,1-trifluoroethane]
effect on TASK-1 channel (TASK-1): activated

CCCCCc1ccc(/C=C/C(=O)Nc2cc(Cl)ccc2C(=O)O)cc1 [ONO RS-082]
WT hKCNK3 current after application of drug (WT hKCNK3 channel): robust increase

FC(F)OC(Cl)C(F)(F)F (stereo not drawn) [Isoflurane, 2-chloro-2-(difluoromethoxy)-1,1,1-trifluoro-ethane]
effect on TASK-1 channel (TASK-1): activated

CCCCC[C@H](O)CC[C@@H]1[C@H]2Cc3cccc(OCC(=O)O)c3C[C@H]2C[C@H]1O [Treprostinil]
dose linearity of pharmacokinetics ([1]; continuous subcutaneous, dose range 1.25 to 125 ng/kg/min, two-compartment model): linear
excreted in feces ([1]; in vivo): 13%
excreted in the urine as identified metabolites ([1]; in vivo): 64%
excreted in the urine as unchanged drug ([1]; in vivo): 4%
half life ([1]; in vivo): 4 h
metabolism ([1]; in vivo): substantially metabolized by the liver
